Assay results as given in patent US20110250266A1, “LIPOSOMAL SYSTEMS COMPRISING SPHINGOMYELIN” (Yissum Research Development Company of the Hebrew …, priority 2008, published 2011).
Values joined by “and” are separate entries in the source; they are usually repeats but may differ in a detail not shown here. Identical values can stand only once. Counter-ions that a name gives are not always drawn.

Tests used:
[1] = system: Mice (male Swiss-Webster); test: Analgesic efficacy in mouse model (electrical stimulation of abdominal skin, vocalization threshold); assay type: in vivo; parameters: key: 1 = analgesia; 0 = no analgesia; 10 = partial analgesia
Experimental: Testing for analgesia was done by electrical stimulation of the skin directly overlying the abdomen at the site of injection using a current generator (model S48, Grass Instruments).
Mice (male Swiss-Webster, 26±3 gr) were tested prior to injection to determine the vocalization threshold than were injected with encapsulation BUP liposomes than determine analgesic duration (G. J. Grant et al, pharmaceutical research, vol 18, no. 3, 336-343, 2001).
In order to evaluate the effect of altering the volume and BUP concentration of the injection, in each group, three mice received 150 μL of the 2% formulation and 3 mice received 300 μL of a 1:1 diluted 2% formulation.
In these Tables, an numeric score of “1” denotes full analgesia, a numeric score of “0” was given when there was no analgesic effect, and a numeric value of “10” when there was partial analgesia.
As indicated above, the numerical score to the spreadsheet was introduced for the evaluation of the analgesic effect of various liposome preparations performance in vivo: For each time period (e.g. 4 hrs, 8 hrs etc) a numeric value of 1 was given if the anesthesia was complete; 10 or 0.5 was given when analgesia was partial (incomplete) and 0 for no anesthesia. The mean for each subgroup was calculated separately (i.e. 1% 300 μl, 2% 150 μg).

mouse = test: Maximal tolerated dose of free BUP; assay type: in vivo
[2] = individual mice, Bup conc 0.25%, volume 150 ul, 0.375 mg Bup
[3] = individual mice, Bup conc 0.25%, volume 150 ul, 0.375 mg Bup, hydrochloride
[4] = individual mice, Bup conc 0.25%, volume 300 ul, 0.75 mg Bup
[5] = individual mice, Bup conc 0.25%, volume 300 ul, 0.75 mg Bup, hydrochloride
[6] = individual mice, Bup conc 0.50%, volume 150 ul, 0.75 mg Bup
[7] = individual mice, Bup conc 0.50%, volume 150 ul, 0.75 mg Bup, hydrochloride
[8] = mice, 0.25%, 150 ul, 0.375 mg Bup
[9] = mice, 0.25%, 150 ul, 0.375 mg Bup, hydrochloride
[10] = mice, 0.25%, 300 ul, 0.75 mg Bup
[11] = mice, 0.25%, 300 ul, 0.75 mg Bup, hydrochloride
[12] = mice, 0.50%, 150 ul, 0.75 mg Bup
[13] = mice, 0.50%, 150 ul, 0.75 mg Bup, hydrochloride

CCCCN1CCCCC1C(=O)Nc1c(C)cccc1C (stereo not drawn) [Standard Bupivacaine, Bupivacaine hydrochloride]
Analgesic effect score at 15 min [1, 2]: 1 | Analgesic effect score at 30 min [1, 2]: 1 | Analgesic effect score at 45 min [1, 2]: 1 | Analgesic effect score at 60 min [1, 3]: 0 (5×) and 1 (2×) and 10 | Analgesic effect score at 75 min [1, 3]: 0 (7×) and 10 | Analgesic effect score at 90 min [1, 2]: 0 | Analgesic effect score at 15 min [1, 4]: 1 | Analgesic effect score at 30 min [1, 4]: 1 | Analgesic effect score at 45 min [1, 4]: 1 | Analgesic effect score at 60 min [1, 4]: 1 | Analgesic effect score at 75 min [1, 5]: 0 and 1 (7×) | Analgesic effect score at 90 min [1, 5]: 0 and 1 (5×) and 10 (2×) | Analgesic effect score at 105 min [1, 5]: 0 (5×) and 10 and 1 (2×) | Analgesic effect score at 120 min ([1]; individual mice, Bup conc 0.25%, volume 300 ul, 0.75 mg Bup, 120 min, hydrochloride): 0 (7×) and 10 | Analgesic effect score at 135 min ([1]; individual mice, Bup conc 0.25%, volume 300 ul, 0.75 mg Bup, 135 min): 0 | Analgesic effect score at 15 min [1, 6]: 1 | Analgesic effect score at 30 min [1, 6]: 1 | Analgesic effect score at 45 min [1, 6]: 1 | Analgesic effect score at 60 min [1, 7]: 1 (7×) and 10 | Analgesic effect score at 75 min [1, 7]: 1 (6×) and 0 and 10 | Analgesic effect score at 90 min [1, 7]: 0 (4×) and 10 (2×) and 1 (2×) | Analgesic effect score at 105 min [1, 6]: 0 | analgesia 15 min [1, 8]: 1 | analgesia 30 min [1, 8]: 1 | analgesia 45 min [1, 8]: 1 | analgesia 60 min [1, 9]: 0 and 1 and 10 | analgesia 75 min [1, 9]: 0 and 10 | analgesia 90 min [1, 8]: 0 | analgesia 15 min [1, 10]: 1 | analgesia 30 min [1, 10]: 1 | analgesia 45 min [1, 10]: 1 | analgesia 60 min [1, 10]: 1 | analgesia 75 min [1, 11]: 0 and 1 | analgesia 90 min [1, 11]: 0 and 1 and 10 | analgesia 105 min [1, 11]: 0 and 10 and 1 | analgesia 120 min ([1]; mice, 0.25%, 300 ul, 0.75 mg Bup, 120 min, hydrochloride): 0 and 10 | analgesia 135 min ([1]; mice, 0.25%, 300 ul, 0.75 mg Bup, 135 min): 0 | analgesia 15 min [1, 12]: 1 | analgesia 30 min [1, 12]: 1 | analgesia 45 min [1, 12]: 1 | analgesia 60 min [1, 13]: 1 and 10 | analgesia 75 min [1, 13]: 1 and 0 and 10 | analgesia 90 min [1, 13]: 0 and 10 and 1 | analgesia 105 min [1, 12]: 0 | maximal tolerated dose, MTD (mouse): 0.75 mg/mouse
